US20150352076A1, “MOLECULARLY TARGETED COMBINATION DRUG FOR TUMOR TREATMENT AND PREVENTION” (ONCOLYS BIOPHARMA INC., priority 2013, published 2015)
Residues, ends and D or L forms follow the SMILES beside them. *: point of attachment. Cbz = O=C(OCc1ccccc1)*; CH2F = FC*

Assays:
Type in all cases: cell-based, human
[1] = test system: 786-O cells; experiment: Analysis of apoptosis (sub-G1 fraction, flow cytometry); conditions: for effect of combined use with OBP-801 (summary statement): PI3K inhibitor used in combination with OBP-801, all five tested in 786-O cells; for induction of apoptosis (sub-G1), treatment alone: 48 hours and 72 hours
Experimental: (§1) Cells were treated for 24 hours, 48 hours, or 72 hours at respective concentrations with or without addition of OBP-801 and/or with addition of LY294002, BKM120, GDC-0941, BEZ235, BYL719, or CH5132799, following which cells were harvested. The cells were permeabilized with 0.1% Triton-X100, following which the nuclei were stained with propidium iodide (PI). DNA content was measured using a FACSCalibur™ flow cytometer (Becton-Dickinson, Franklin Lakes, N.J., USA), and was analyzed with ModFit LT™ (Verity Software House, Topsham, Me., USA) and the Cell Quest™ software package (Becton-Dickinson).

[2] = test system: HEC-1-A cells; experiment: Cell viability testing (Cell Counting Kit-8), cell growth inhibition
Experimental: (§2) HEC-1-A cells derived from the human type 2 endometrial carcinoma cell line were cultured under conditions of 37° C. and 5% CO2 in RPMI medium to which 10% FBS had been added. Ishikawa human endometrial carcinoma cells were cultured under conditions of 37° C. and 5% CO2 in DMEM medium to which 10% FBS had been added. Human renal cell carcinoma cell line 786-O cells were cultured under conditions of 37° C. and 5% CO2 in RPMI 1640 medium to which 10% FBS, 2 mM glutamine, 100 U/mL penicillin, and 100 μg/mL streptomycin had been added. Human renal cell carcinoma cell line ACHN cells were cultured under conditions of 37° C. and 5% CO2 in DMEM medium to which 10% FBS, 4 mM glutamine, 100 U/mL penicillin, and 100 μg/mL streptomycin had been added. Human lymphoma cell line SU-DHL-6 cells were cultured under conditions of 37° C. and 5% CO2 in RPMI 1640 medium to which 10% FBS, 2 mM glutamine, 100 U/mL penicillin, and 100 μg/mL streptomycin had been added. Human breast cancer cell line MDA-MB-231 cells were cultured under conditions of 37° C. and 5% CO2 in RPMI 1640 medium to which 10% FBS, 2 mM glutamine, 100 U/mL penicillin, and 100 μg/mL streptomycin had been added.
(§3) Cell viability was determined by carrying out measurements at a wavelength of 450 nm with a Viento multi-well spectrophotometer (DS Pharma Biomedical, Japan) using a Cell Counting Kit-8 (Dojindo Laboratories, Japan).

[3] = test system: phosphorylated Akt; experiment: Western blot analysis of phosphorylated Akt in HEC-1-A cells
Experimental: (§4) Cells were lysed with lysis solution (50 mM Tris-HCl, 1% SDS, 2 μg/mL leupeptin, 2 μg/mL aprotinin, 0.1% 2-mercaptoethanol, and 1 mM phenylmethyl sulfonyl fluoride). Protein extract was loaded onto a polyacrylamide gel, subjected to electrophoresis, and transferred to a nitrocellulose membrane. Blots were blocked in blocking solution (5% skim milk/TBST) for 1 hour at room temperature, and incubated with appropriate primary antibody for 1 hour at room temperature. Signal was detected with an ECL™ Western Blot Analysis System (GE Healthcare, Piscataway, N.J., USA) or a Chemi-Lumi One chemiluminescent detection kit (Nacalai Tesque, Inc., Japan). […]

[4] = test system: HEC-1-A cells; experiment: Colony formation assay
Experimental: Cells were seeded at a density of 200 cells per well in 6-well plates. After culturing these for 24 hours, treatment was carried out for 48 hours at respective concentrations with or without addition of OBP-801 and/or with addition of LY294002. These were then cultured in growth medium for 10 days, and the number of viable colonies was counted.

[5] = test system: HEC-1-A cells; experiment: Analysis of cell cycle and apoptosis (sub-G1 fraction, flow cytometry) with combination index; conditions: for effect on tumor cell cycle progression: used alone, OBP-801 4 nM, LY294002 12.5 μM, 24 hours to 72 hours
Experimental: as §1
Combination index (CI) was calculated using CalcuSyn software (Biosoft, UK) based on the method of Chou and Talalay. When CI<1, it is determined that the effect is synergistic; i.e., greater than the expected additive effect. When CI=1, it is determined that the effect is additive; when CI>1, it is determined that the effect is antagonistic.

[6] = test system: 786-O cells; experiment: Cell viability testing, cell growth inhibition; conditions: used alone
Experimental: as §2, §3

[7] = test system: ACHN cells; experiment: Cell viability testing, cell growth inhibition; conditions: used alone
Experimental: as §2, §3

[8] = test system: Ishikawa cells; experiment: Cell viability testing, cell growth inhibition; conditions: used alone
Experimental: as §2, §3

[9] = test system: caspase-3, caspase-8 and caspase-9; experiment: Western blot analysis of caspase-3, caspase-8 and caspase-9 cleavage in 786-O cells
Experimental: as §4

[10] = test system: caspases, Bim; experiment: Western blot analysis of caspase cleavage and Bim in HEC-1-A cells; conditions: OBP-801 and LY294002 plus NAC
Experimental: as §4

[11] = test system: 786-O cells; experiment: Measurement of intracellular reactive oxygen species (CM-H2DCFDA); conditions: OBP-801 and LY294002 plus NAC
Experimental: (§5) Cells were pretreated for 48 h with or without addition of OBP-801 and/or with addition of LY294002, and were thereafter treated with 10 μM 5-(and-6)-chloromethyl-2′,7′-dichlorodihydrofluorescein diacetate, acetyl ester (CM-H2DCFDA) (Invitrogen, Carlsbad, Calif., USA). After 30 minutes of incubation with 10 μM CM-H2DCFDA, cells were collected by trypsinization, were washed with PBS, and were analyzed by flow cytometry using FACSCalibur™ and CellQuest™ software (Becton-Dickinson).

[12] = test system: HEC-1-A cells; experiment: as above; conditions: OBP-801 and LY294002 plus NAC
Experimental: as §5

[13] = test system: survivin and XIAP; experiment: Western blot analysis of survivin and XIAP in 786-O cells; conditions: OBP-801 and LY294002 plus NAC
Experimental: as §4

[14] = test system: acetylated histone H4; experiment: Western blot analysis of acetylated histone H4 in HEC-1-A cells
Experimental: as §4

Cn1c(=O)n(-c2ccc(C(C)(C)C#N)cc2)c2c3cc(-c4cnc5ccccc5c4)ccc3ncc21 [BEZ235]
effect of combined use with OBP-801 (summary statement) [1]: synergistic tumor therapeutic/prophylactic effect

Nc1cc(C(F)(F)F)c(-c2cc(N3CCOCC3)nc(N3CCOCC3)n2)cn1 [BKM120]
effect of combined use with OBP-801 (summary statement) [1]: synergistic tumor therapeutic/prophylactic effect

Cc1nc(NC(=O)N2CCC[C@H]2C(N)=O)sc1-c1ccnc(C(C)(C)C(F)(F)F)c1 [BYL719]
effect of combined use with OBP-801 (summary statement) [1]: synergistic tumor therapeutic/prophylactic effect

CS(=O)(=O)N1CCc2c(-c3cnc(N)nc3)nc(N3CCOCC3)nc21 [CH5132799]
effect of combined use with OBP-801 (summary statement) [1]: synergistic tumor therapeutic/prophylactic effect

CS(=O)(=O)N1CCN(Cc2cc3nc(-c4cccc5[nH]ncc45)nc(N4CCOCC4)c3s2)CC1 [GDC-0941]
effect of combined use with OBP-801 (summary statement) [1]: synergistic tumor therapeutic/prophylactic effect

O=c1cc(N2CCOCC2)oc2c(-c3ccccc3)cccc12 [LY294002, 2-(4-morpholinyl)-8-phenyl-4H-1-benzopyran-4-one]
concentrations causing inhibition of cell growth ([2]; LY294002 alone): ≥ 6.3 µM | concentrations causing decrease in phosphorylated Akt [3]: ≥ 6.3 µM | number of colonies formed ([4]; LY294002 alone, even at a concentration as high as 12.5 μM): no reduction in the number of colonies formed was observed | effect on tumor cell cycle progression [5]: G1-phase arrest | growth of 786-O cells [6]: suppressed growth of 786-O cells or ACHN cells in concentration-dependent fashion | growth of ACHN cells [7]: suppressed growth of 786-O cells or ACHN cells in concentration-dependent fashion | growth of Ishikawa cells [8]: suppressed growth of Ishikawa cells in concentration-dependent fashion | induction of apoptosis (sub-G1), treatment alone ([1]; 786-O cells): only slight induction of apoptosis | cleavage of caspase-3, caspase-8 and caspase-9 [9]: did not induce cleavage of the foregoing caspases

CC(=O)N[C@@H](CS)C(=O)O [NAC, N-acetyl-L-cysteine]
effect on induction of apoptosis resulting from combined treatment ([5]; HEC-1-A cells, OBP-801 and LY294002 plus NAC): almost completely suppressed | effect on induction of apoptosis due to combined treatment ([1]; 786-O cells, OBP-801 and LY294002 plus NAC): blocked the induction of apoptosis | effect on caspase activation and Bim induction due to combined treatment [10]: inhibited the caspase activation and Bim induction | effect on induction of intracellular reactive oxygen species due to combined treatment [11]: blocked the induction of intracellular reactive oxygen species | effect on increase of intracellular reactive oxygen species caused by combined treatment [12]: blocked | effect on downregulation of survivin and XIAP by combined treatment [13]: restored

COC(=O)C[C@H](NC(=O)[C@H](C)NC(=O)[C@@H](NC(=O)OCc1ccccc1)C(C)C)C(=O)CF [zVAD-fmk] (Cbz-Val-Ala-Asp(OMe)-CH2F)
effect on apoptosis induced by combined use of OBP-801 and PI3K inhibitor ([5]; HEC-1-A cells, pan-caspase inhibitor added): almost completely suppressed | effect on apoptosis induced by combined treatment with OBP-801 and LY294002 ([1]; 786-O cells, pan-caspase inhibitor added): effectively suppressed the apoptosis

spiruchostatin A [OBP-801]
concentrations causing inhibition of cell growth ([2]; OBP-801 alone): ≥ 0.0031 µM | concentrations causing increase of acetylated histone H4 [14]: ≥ 1.6 nM | number of colonies formed ([4]; OBP-801 alone at 4 nM, 48 hours treatment, 10 days culture): 60% | effect on tumor cell cycle progression [5]: G2/M-phase arrest | growth of 786-O cells [6]: suppressed growth of 786-O cells or ACHN cells in concentration-dependent fashion | growth of ACHN cells [7]: suppressed growth of 786-O cells or ACHN cells in concentration-dependent fashion | growth of Ishikawa cells [8]: suppressed growth of Ishikawa cells in concentration-dependent fashion | induction of apoptosis (sub-G1), treatment alone ([1]; 786-O cells): only slight induction of apoptosis | cleavage of caspase-3, caspase-8 and caspase-9 [9]: did not induce cleavage of the foregoing caspases
